{"source": "patent US20080108568A1", "about": "“COMPOUNDS FOR IMPROVING LEARNING AND MEMORY” (TGEN, priority 2006, published 2008)", "key": {"aged rats": {"tested_on": "aged rats", "assay": "Morris water maze (reference memory)", "type": "in vivo, rat", "description": "The rats were also tested using the Morris water maze. The Morris water maze consists of a circular water bath with a single platform. The bath is divided into 4 quadrants and various annuli. A rat was placed in the water bath and the time and distance that the rat required to reach the platform was measured. The solving strategy used by the rat was also noted. The movement of the rat was tracked using a digital tracking system. Each rat underwent 4 trials per day, with entry into the maze varied by quadrant for each trial. The Morris water maze included 5 days of testing, with the first 4 days involving testing and day 5 involving a probe trial.\n(§1) Aged animals were pre-loaded for 14 days at 10mg/kg/day (FAS LOW DOSE+PRIMING) or at 3 mg/kg/day (FAS LOW DOSE). After 14 days all animals were administered 3 mg/kg/day. Vehicle was normal saline (0.9%). The rats were subjected to the Radial Arm Maze and the Morris Water Maze described above.\nFasudil was also delivered via daily sub-cutaneous injections to aged (18-months old) rats at doses of 3 mg/kg/day (n=8) or 30 mg/kg/day (n=8). Controls included both aged and young (4-months old) rats injected daily with vehicle (normal saline). The low dose for Fasudil was based upon the previous study showing efficacy with 0.750 mg/kg/day hydroxyfasudil and the high dose was based on that reported in the literature as a commonly used therapeutic dose."}, "[1]": {"tested_on": "aged (18-months old) rats", "assay": "tolerability observation during daily sub-cutaneous dosing", "type": "in vivo, rat", "conditions": "10 mg/kg/day s.c., after 7 days of drug delivery; animals switched to the low dose", "description": "(§2) This experiment included a decreased pre-loading phase, a more difficult version of the working memory trial (where 7 out of 8 arms were platformed), and an elongated version of the Morris maze (7 days plus a “probe” trial). Fasudil was delivered via daily sub-cutaneous injections to aged (18-months old) rats at doses of 3 mg/kg/day (n=8) or 10 mg/kg/day (n=8). Controls included both aged and young (4-months old) rats injected daily with vehicle (normal saline). The low dose for Fasudil was based upon the evidence in Example 3 showing efficacy and the high dose was based on that reported in the literature as a commonly used low therapeutic dose. There was a one day loading period for this experiment."}, "[2]": {"tested_on": "aged (18-months old) rats", "assay": "water escape radial arm maze, more difficult version of the working memory trial (7 out of 8 arms platformed)", "type": "in vivo, rat", "description": "as §2"}, "[3]": {"tested_on": "aged rats (18 months old)", "assay": "water escape radial arm maze test (4 of 8 arms platformed)", "type": "in vivo, rat", "description": "Hydroxyfasudil was tested in vivo by administering to aged rats (18 months old) two doses of 0.75 mg/kg and 0.375 mg/kg, delivered subcutaneously each day for a period of 4-5 days before testing. During testing, hydroxyfasudil was administered in the morning of each testing day. Two control groups were used, with one group being untreated and the other group treated with the vehicle (saline). Both control groups include 9 members, with an age of 4 months.\nThe rats were then tested using the water escape radial arm maze test. The radial arm maze is a swim-based test without the need for food deprivation. The maze consists of 8 radial arms, with 4 of the arms having a submerged platform. […] The rat was given 180 seconds to locate a platform. If the rat located a platform, the rat was allowed 15 seconds on the platform, and was then removed. When a rat found a platform, that platform was removed prior to beginning the next trial. Each rat was subjected to 4 trials per day, with 1 trial per platform and 30 seconds between trials. Each rat was tested over a period of 12 days, with the first day consisting of training, days 2-7 considered “initial,” and days 8-12 considered “latter.”\nAdditional efficacy testing was performed using twenty-seven 18-month old male rats were utilized and divided randomly into three treatment groups: saline vehicle (“Aged Vehicle”), hydroxyfasudil in saline at a dose of 0.1875 mg per day (“Aged Low Dose”), and hydroxyfasudil at a dose of 0.3750 mg per day (“Aged High Dose”). Daily injections of the assigned substrate began four days prior to behavioral testing and continued throughout testing, with injections given approximately one hour before daily testing ensued. Animals were tested 4 trials per day for 12 consecutive days. Following the water radial arm maze, spatial reference memory was assessed using the Morris water maze. This testing consisted of 4 trials per day for 4 days with an additional probe trial on the final day.\nUsing the protocol described above for hydroxyfasudil, rats were treated with from 1 mg/kg to 2 mg/kg of fenretinide. The rats were subjected to the Radial Arm Maze and the Morris Water Maze described above.\nas §1"}, "[4]": {"tested_on": "“memory molecule” transcripts in the hippocampus", "assay": "expression profile of the entire hippocampus of hydroxyfasudil treated animals", "type": "in vivo", "conditions": "FIG. 6", "description": "The tissue source is the entire hippocampus.\nAfter testing, the rats were terminated and the brain dissected."}, "[5]": {"conditions": "rats, 1 mg/kg to 2 mg/kg, FIG. 7"}}, "note": "“Also recorded” adds a separate entry of the source."}
{"smiles": "O=S(=O)(c1cccc2cnccc12)N1CCCNCC1", "note": "[Fasudil, fasudil]", "values": [{"measurement": "efficacy of the low dose (evidence in Example 3)", "setting": "aged rats; 3 mg/kg/day s.c.", "result": "efficacy"}, {"measurement": "reference memory performance (inches swam to locate the hidden platform), by day", "setting": "aged rats; 14 days pre-loading at 10 or 3 mg/kg/day, then 3 mg/kg/day, collapsed across trials each day, FIG. 11A", "result": "improves reference memory performance"}, {"measurement": "reference memory performance (inches swam to locate the hidden platform), by trial", "setting": "aged rats; 14 days pre-loading at 10 or 3 mg/kg/day, then 3 mg/kg/day, collapsed by trial for all four days, FIG. 11B", "result": "improves reference memory performance"}, {"measurement": "trauma in dosed animals", "setting": "[1]", "result": "began to show similar trauma as in the previous study"}, {"measurement": "memory performance", "setting": "[2]; FIG. 12 legend", "result": "improves memory performance"}, {"measurement": "working memory performance", "setting": "[2]; aged rats, 3 or 10 mg/kg/day s.c. (10 mg/kg/day switched to low dose after 7 days), especially trials 6 and 7, FIG. 12", "result": "significant improvement in working memory performance"}]}
{"smiles": "CC1=C(/C=C/C(C)=C/C=C/C(C)=C/C(=O)Nc2ccc(O)cc2)C(C)(C)CCC1", "note": "[fenretinide]", "values": [{"measurement": "working memory", "setting": "[3]; 6 rats per group, FIG. 7 legend", "result": "improving working memory"}, {"measurement": "memory, greater doses versus smaller doses", "setting": "[3]; [5]", "result": "improved memory more than smaller doses"}, {"measurement": "number of incorrect errors made by the rats, versus the control", "setting": "[3]; [5]", "result": "lowered the number of incorrect errors"}]}
{"smiles": "O=c1[nH]ccc2c(S(=O)(=O)N3CCCNCC3)cccc12", "note": "[hydroxyfasudil]", "values": [{"measurement": "“memory molecule” transcripts in the hippocampus", "setting": "[4]", "result": "alteration of “memory molecule” transcripts"}, {"measurement": "memory (working memory)", "setting": "[3]; 18-month old male rats, 0.1875 mg per day and 0.3750 mg per day, daily injections from four days before testing, FIG. 16", "result": "improved memory; also recorded: improves working memory"}, {"measurement": "working memory", "setting": "[3]; FIG. 5 legend", "result": "improves working memory"}, {"measurement": "memory", "setting": "[3]; aged rats, 0.75 mg/kg and 0.375 mg/kg s.c. daily, FIGS. 3-5", "result": "improved memory"}, {"measurement": "learning scores (orthogonal measures of working memory)", "setting": "[3]; aged rats, 0.75 mg/kg and 0.375 mg/kg subcutaneously each day, FIGS. 3-4", "result": "improved learning scores"}, {"measurement": "improvements of learning, higher doses versus smaller doses", "setting": "[3]; aged rats, 0.75 mg/kg vs 0.375 mg/kg s.c. daily, FIGS. 3-4", "result": "greater improvements of learning"}, {"measurement": "improvements of memory, higher doses versus smaller doses", "setting": "[3]; aged rats, 0.75 mg/kg vs 0.375 mg/kg s.c. daily, FIGS. 3-5", "result": "greater improvements of memory"}, {"measurement": "performance of aging rats compared with young rats", "setting": "[3]; aging rats receiving the compound", "result": "perform at a level comparable to young rats"}]}
